Tests used:
[1] = test system: SW1353 cells; assay: Determination of TGF-β content (ELISA) of SW1353 cell cultures treated with postbiotic extract and/or nutritional component; format: cell-based, Human; settings: 24 hours
Procedure: (§1) • 2. Human primary central chondrosarcoma cell line SW1353 was purchased from the Bioresource Collection and Research Center of the Food Industry Research and Development Institute (BCRC of FIRDI, Taiwan). SW1353 cells were grown in a 10-cm Petri dish containing Dulbecco's Modified Eagle's Medium (DMEM) (Thermo Fisher Scientific) supplemented with 10% fetal bovine serum (FBS). The SW1353 cells were cultivated in an incubator with culture conditions set at 37° C. and 5% CO2. Medium change was performed every two to three days. Cell passage was performed when the cultured cells reached 80-90% of confluence. • 3.
The TGF-β content was determined using an enzyme-linked immunosorbent assay (ELISA) kit (Cat. No. 559119, BD Biosciences) in accordance with the manufacturer's instructions.
(§2) SW1353 cells were divided into 25 groups, including one control group, twelve comparative groups (i.e., comparative groups L-1 to L-6 and B-1 to B-6), and twelve experimental groups (i.e., experimental groups L-1 to L-6 and B-1 to B-6). Each group of the SW1353 cells was incubated in a respective well of a 96-well culture plate containing 200 μL of DMEM at 1×10^4 cells/well, followed by cultivation in an incubator (37° C., 5% CO2) for 24 hours. […] The cell culture of the control group received no treatment.
After cultivation in an incubator (37° C., 5% CO2) for 24 hours, the respective resultant cell culture was subjected to the determination of TGF-β content according to the method described in section 1 of “General Procedures”.
(§3) SW1353 cells were divided into 28 groups, including fourteen comparative groups (i.e., comparative groups 1L to 7L and […]) and fourteen experimental groups (i.e., experimental groups 1L to 7L and 1B to 7B). Each group of the SW1353 cells was incubated in a respective well of a 96-well culture plate containing 200 μL of DMEM at 1×10^4 cells/well, followed by cultivation in an incubator (37° C., 5% CO2) for 24 hours.

[2] = test system: SW1353 cells; assay: Proliferation of SW1353 cells (MTT staining, OD570 converted to cell number); format: cell-based, Human; settings: 24 hours
Procedure: as §1
as §2, with “3” for “25”, “group” for “group, twelve comparative groups (i.e., comparative groups L-1 to L-6”, “two” for “B-1 to B-6), and twelve”, “L” for “L-1 to L-6”, “B).” for “B-1 to B-6).”
After cultivation in an incubator (37° C., 5% CO2) for 24 hours, the respective resultant cell culture was stained with 3-(4,5-Dimethylthiazol-2-yl)-2,5-diphenyltetrazolium bromide (MTT), followed by subjecting the stained cells to determination of absorbance at a wavelength of 570 nm by a spectrophotometer. The OD570 values obtained were subsequently converted to cell numbers based on a correlation curve previously prepared by plotting different known cell numbers of the SW1353 cells versus their OD570 values.
as §3
After cultivation in an incubator (37° C., 5% CO2) for 24 hours, the cell number of each group was determined according to the method described in section C of this example. The fold increase of viable cells was calculated using the following Equation (II): C=D/E (II) where C=fold increase of viable cells • D=cell number of respective experimental group or comparative group • E=cell number of corresponding comparative group 1L, 2L, 3L, 4L, 5L, 6L, or 7L

[3] = nutritional component only 50 mg/L
[4] = nutritional component only 100 mg/L
[5] = nutritional component only 50 mg/L, this group is the reference of the ratio
[6] = nutritional component only 100 mg/L, relative to the same component at 50 mg/L

Row | Compound | TGF-β content [1, 3] | TGF-β content [1, 4] | Fold increase of viable cells [2, 5] | Fold increase of viable cells [2, 6]
1 | N[C@H]1C(O)O[C@H](CO)[C@@H](O)[C@@H]1O (stereo partly shown) [Glucosamine] | 17.1 pg/mL | 20.8 pg/mL | 1.0 | 1.1
2 | O=C1O[C@H]([C@@H](O)CO)C(O)=C1O [Vitamin C] | 18.2 pg/mL | 21.1 pg/mL | 1.0 | 1.0
3 | Chondroitin | 38.3 pg/mL | 44.2 pg/mL | 1.0 | 1.1
4 | Sodium hyaluronate | 97.3 pg/mL | 102.2 pg/mL | 1.0 | 1.1

Source: patent publication US11517596B2, “Method for alleviating arthritis with postbiotic extract” (CHAMBIO CO., LTD., priority 2020, dated 2022)
